Series [1] in a line: Stability of the compound in mouse liver microsomes assessed as parent compound remaining measured after 0.5 hrs. The series is classed as ADME, Microsome. Conditions: for remaining at 0.5 h: mouse liver microsomes, read-out: Stability. (Liver microsomes are a subcellular fraction often used to study metabolism.)
A short description of series [2]: Distribution coefficient, log D of the compound in 1-octanol and PBS buffer at pH 7.4 measured after 30 mins by LC-MS analysis. The series is classed as physicochemical. As to conditions: 1-octanol/PBS buffer.
Series [3] can be described thus: Aqueous thermodynamic solubility of the compound at pH 6.8 measured after 4 hrs by UV-HPLC analysis. It counts as physicochemical. As to conditions: buffer, pH 6.8; read-out: Therm_solubility.

Structures are written as SMILES. Values after ≈ are worked out from the molar mass of the structure shown.

Take `Cn1nccc1[C@H]1CCCC[C@@H]1Oc1cc(F)c(S(=O)(=O)Nc2cscn2)cc1F` (racemic): the remaining at 0.5 h in series [1] stood at 28%. In series [2], the logD at 0.5 h turned out to be 1.8. Also, the solubility thermodynamic at 4 h in series [3] stood at 660 µM (≈ 300 µg/mL).

Turning to `Cn1nccc1[C@H]1CCC[C@@H]1Oc1cc(F)c(S(=O)(=O)Nc2ccncn2)cc1Cl` (racemic), in series [1], the remaining at 0.5 h worked out at 88%. Also, the logD at 0.5 h in series [2] worked out at 0.9. The solubility thermodynamic at 4 h in series [3] is 240 µM (≈ 108 µg/mL).

Consider `Cn1nccc1[C@H]1CCC[C@@H]1Oc1ccc(S(=O)(=O)Nc2ccncn2)c(F)c1F` (racemic), for which the remaining at 0.5 h in series [1] amounted to 82%. In series [2], this compound yielded a logD at 0.5 h of 0.4. In addition, the solubility thermodynamic at 4 h in series [3] was determined as 550 µM (≈ 240 µg/mL).

As for `Cn1nccc1[C@H]1CCC[C@@H]1Oc1cc(F)c(S(=O)(=O)Nc2nccs2)cc1F` (racemic), in series [1], the remaining at 0.5 h was 54%. For the same compound, the logD at 0.5 h in series [2] was 2.1. Further, in series [3], the solubility thermodynamic at 4 h is 250 µM (≈ 110 µg/mL).

For the compound `Cn1nccc1[C@H]1CCC[C@@H]1Oc1cc(F)c(S(=O)(=O)Nc2ccncn2)c(F)c1` (racemic), the remaining at 0.5 h in series [1] stood at 80%. Also, the logD at 0.5 h in series [2] was 0.1. For the same compound, the solubility thermodynamic at 4 h in series [3] was found to be 1800 µM (≈ 784 µg/mL).

As to `Cn1nccc1[C@H]1CCCC[C@@H]1Oc1cc(F)c(S(=O)(=O)Nc2ncns2)cc1F` (racemic), in series [1], the remaining at 0.5 h is 75%. In series [2], this compound had a logD at 0.5 h of 0.7. Moreover, in series [3], the solubility thermodynamic at 4 h was above 2000 µM.

Consider `Cc1nsc(NS(=O)(=O)c2cc(F)c(O[C@H]3CCC[C@@H]3c3ccnn3C)cc2F)n1` (racemic), for which the remaining at 0.5 h in series [1] was found to be 69%. Moreover, the logD at 0.5 h in series [2] is 0.9. Moreover, in series [3], the solubility thermodynamic at 4 h stood at 1800 µM (≈ 820 µg/mL).

Consider `Cn1nccc1[C@H]1CCC[C@@H]1Oc1cc(F)c(S(=O)(=O)Nc2ccncn2)cc1F` (racemic), for which the remaining at 0.5 h in series [1] is 100%. Also, the logD at 0.5 h in series [2] is 0.3. In addition, the solubility thermodynamic at 4 h in series [3] was determined as 740 µM (≈ 322 µg/mL).

For `Cn1nccc1[C@H]1CCCC[C@@H]1Oc1cc(F)c(S(=O)(=O)Nc2ccncn2)cc1Cl` (racemic) [DS-1971], the Stability in series [1] (microsomes, 0.5 h) worked out at 70%. The same compound returned a logD at 0.5 h in series [2] of 0.8. For the same compound, the solubility thermodynamic at 4 h in series [3] is above 2000 µM.

As for `Cn1nccc1[C@H]1CCC[C@@H]1Oc1cc(F)c(S(=O)(=O)Nc2ncns2)cc1F` (racemic), in series [1], the remaining at 0.5 h came out at 91%. The same compound came in with a logD at 0.5 h in series [2] of 0.6. Moreover, the solubility thermodynamic at 4 h in series [3] is above 1900 µM.

With `Cc1cc(S(=O)(=O)Nc2ccncn2)c(F)cc1O[C@H]1CCC[C@@H]1c1ccnn1C` (racemic), in series [1], the remaining at 0.5 h is 87%. The compound also yielded a logD at 0.5 h in series [2] of 0.9. For the same compound, in series [3], the solubility thermodynamic at 4 h was 1200 µM (≈ 518 µg/mL).

`Cn1nccc1[C@H]1CCCC[C@@H]1Oc1cc(F)c(S(=O)(=O)Nc2ccncn2)cc1F` (racemic): the remaining at 0.5 h in series [1] was determined as 80%. Also, in series [2], the logD at 0.5 h was 0.3. Also, in series [3], the solubility thermodynamic at 4 h came to 1900 µM (≈ 854 µg/mL).

Take `Cn1nccc1[C@H]1CCCCC[C@@H]1Oc1cc(F)c(S(=O)(=O)Nc2ccncn2)c(F)c1` (racemic): the remaining at 0.5 h in series [1] was 97%. The compound also displayed a logD at 0.5 h in series [2] of 0.6. The solubility thermodynamic at 4 h in series [3] worked out at 1040 µM (≈ 482 µg/mL).

Turning to `Cn1nccc1[C@H]1CCCC[C@@H]1Oc1cc(F)c(S(=O)(=O)Nc2ccncn2)c(F)c1` (racemic), in series [1], the remaining at 0.5 h was 77%. Besides, the logD at 0.5 h in series [2] came to 0.1. For the same compound, the solubility thermodynamic at 4 h in series [3] came to 1800 µM (≈ 809 µg/mL).

As to `Cc1cc(S(=O)(=O)Nc2ccncn2)c(F)cc1O[C@H]1CCCC[C@@H]1c1ccnn1C` (racemic), the remaining at 0.5 h in series [1] worked out at 75%. Moreover, the logD at 0.5 h in series [2] was 0.9. Further, in series [3], the solubility thermodynamic at 4 h worked out at 1800 µM (≈ 802 µg/mL).

What is called logD is lipophilicity at a set pH, counting ionised and neutral species.

Source of the values: ChEMBL document CHEMBL4622872, “Discovery of DS-1971a, a Potent, Selective NaV1.7 Inhibitor” (J Med Chem, 2020).
